The source of these data is ChEMBL document CHEMBL5143697, “Phenethoxy Derivatives with Anti-inflammatory Activities from the Betelnut Endophytic Trichoderma asperellum G10” (J Nat Prod, 2022).

This test concerns RAW264.7. The test can be described thus: Antiinflammatory activity against mouse RAW264.7 cells assessed as inhibition of LPS-induced NO production preincubated for 1 hr followed by LPS stimulation and measured after 36 hrs by Griess reagent based assay. The class given is functional, cell-based.

pIC50: −log10 of the molar value.

For the compound `C[C@@H]1[C@H](OCCc2ccccc2)O[C@H](C)[C@H]1CO`, the pIC50 (commonly −log10 of the IC50, conventionally taken in molar units) is 4.32.
